Results on 1 substance are retold here after patent EP4151202A1, “COMPOSITION FOR PREVENTING AND/OR TREATING WHITE STRETCH MARKS” (LSI Silderma Ltd, priority 2021, dated 2023).

The data set relates to vergetures blanches. Put plainly: Tolerance of cutaneous application (side effects) on skin with white stretch marks. In kind it is in vivo, individus. As to conditions: as active ingredient together with the excipients of formule 1. From the text:
Pour évaluer l'efficacité et la tolérance d'application de la composition de l'invention, 27 individus ont appliqué, matin et soir, pendant 90 jours, sur une zone de peau nettoyée avec vergetures blanches existantes, soit une composition selon l'invention, soit une composition « placebo ».
Chez chaque individu, la composition « placebo » a été appliquée sur une première moitié de la zone constituée par les vergetures blanches, et la composition de l'invention sur l'autre moitié de ladite zone. L'application cutanée sur les différentes zones de vergetures blanches a été accompagnée d'un léger massage pour favoriser la pénétration dans la peau de chacune des deux compositions. En moyenne, il a été appliqué entre 0,02 et 0,04 mL de composition / cm^2 de peau avec vergetures blanches.
On entend par « effet secondaire » des brûlures, irritations, démangeaisons ou tout autre type de modification de la peau au niveau de la surface d'application de la composition de l'invention. Ainsi, le palmitoyl-tripeptide-5, en tant que principe actif dermatologique, en association avec les excipients, est bien toléré en application cutanée.

As for palmitoyl-tripeptide-5, the “tolérance en application cutanée” value was “bien toléré”.
